Assay results reported in publication PMC9060023 (Skin Health and Disease, 2021).
pEC50: −log10 of the molar value.

Tests used:
melanocytes in face = experiment: Chronic toxicity study, histopathology of melanocytes in face; assay type: in vivo; details: chronic toxicity study in non-rodent species; data not shown
[1] = biological target: T1, cynomolgus monkey MC1R (cmMC1R) (Macaca fascicularis, UniProt A3KF53); experiment: Cyclic AMP assay in HEK293 cells stably expressing cmMC1R; assay type: cell-based; details: cmMC1R on HEK293; geometric mean of three experiments; read-out: EC50 agonistic activity (cAMP)
T1 sequence (A3KF53 1-317): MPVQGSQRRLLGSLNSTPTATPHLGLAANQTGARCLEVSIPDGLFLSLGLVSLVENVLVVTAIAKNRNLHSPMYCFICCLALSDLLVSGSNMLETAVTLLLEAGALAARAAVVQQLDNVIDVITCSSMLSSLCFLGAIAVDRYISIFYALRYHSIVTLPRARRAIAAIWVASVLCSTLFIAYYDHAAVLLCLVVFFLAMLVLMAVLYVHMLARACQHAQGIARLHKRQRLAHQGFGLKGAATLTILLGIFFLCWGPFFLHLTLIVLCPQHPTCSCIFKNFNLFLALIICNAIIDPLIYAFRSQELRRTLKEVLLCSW
Experimental: (§2) The site‐specific integration of each MCR gene was carried out in accordance with the Jump‐In^TM TI^TM Gateway® Targeted Integration System user guide (www.lifetechnologies.com) except replacement of tetracycline‐induced CMV promoter into SV40 promoter in MCR expression vector as previously described.[15] This technology enables stable single copy integration at the same location in the genome, equalising expression levels. CHO‐K1 cells expressing human MC2R and accessory protein MRAP were prepared by EuroscreenFast (Gosselies, Belgium).
(§3) Hanks' balanced salt solution containing 1% bovine serum albumin and 10 mmol/l HEPES was prepared and used as an assay buffer. Cells were suspended in the assay buffer containing 0.5 mmol/l 3‐isobutyl‐1‐methylxanthine (Calbiochem) and plated into a microplate. Serially diluted test substances were then added and incubated for 30 min at 37°C. Concentrations of cAMP in the cells were quantified using the cAMP dynamic 2 kit (Cisbio Bioassays) by measuring fluorescence.

[2] = Pharmacokinetic study, single oral dose in Ay/a mice; assay type: in vivo, mouse; details: for Cmax: Ay/a, mouse, po; for Cmax / Tmax / AUC(0-t): plasma; for AUC(0-t): read-out: AUC0–8 h
[3] = Pharmacokinetic study, 4 weeks repeated oral dosing in cynomolgus monkeys; assay type: in vivo, cynomolgus monkey; details: for Cmax / Tmax / AUC(0-t): female, cynomolgus monkey, plasma; for AUC(0-t): read-out: AUC0–24 h
human MC2R (hMC2R) = biological target: T2, human MC2R (hMC2R) (Homo sapiens, UniProt Q01718); experiment: Cyclic AMP assay in CHO-K1 cells expressing human MC2R and MRAP; assay type: cell-based; details: data not shown, read-out: EC50 agonistic activity (cAMP)
T2 construct: host or cells: CHO-K1

[4] = Tissue distribution study in rats; assay type: in vivo, rat; details: data not shown
rat MC1R = biological target: T3, rat MC1R (Rattus norvegicus, UniProt B6ZGR5); experiment: Cyclic AMP assay in HEK293 cells stably expressing rat MC1R; assay type: cell-based; details: data not shown, read-out: EC50 agonistic activity (cAMP)
T3 construct: expressed in transfected cells; host or cells: HEK293 (Jump-In TI Gateway targeted integration, SV40 promoter)
T3 sequence (B6ZGR5 1-317): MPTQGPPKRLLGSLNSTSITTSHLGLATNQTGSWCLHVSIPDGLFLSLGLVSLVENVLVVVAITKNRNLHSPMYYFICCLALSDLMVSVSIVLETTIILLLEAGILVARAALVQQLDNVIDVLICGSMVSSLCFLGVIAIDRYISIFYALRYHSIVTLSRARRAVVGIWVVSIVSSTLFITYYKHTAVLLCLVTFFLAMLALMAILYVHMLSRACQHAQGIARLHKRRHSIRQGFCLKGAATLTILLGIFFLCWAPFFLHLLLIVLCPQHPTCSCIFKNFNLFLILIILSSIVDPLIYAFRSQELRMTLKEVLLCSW

human MC1R (hMC1R) = experiment: Cyclic AMP assay in HEK293 cells stably expressing hMC1R; assay type: cell-based; details: wild type and variants
Experimental: as §2, §3

[5] = tested on: B16F1 mouse melanoma cell line; experiment: Melanin production in B16F1 cell line; assay type: cell-based; details: B16-F1, 72 h, read-out: EC50 of melanin production (95% confidence interval)
Experimental: Dulbecco's modified Eagle medium without phenol red (Life Technologies), containing 10% foetal bovine serum (Gibco) and 100 U/ml of penicillin‐streptomycin (Gibco), was used as the assay medium. Cells (1.5 × 10^4) were seeded into a 96‐well culture plate. Serially diluted test substances were added to the plate and incubated at 37°C in a humidified 5% CO2 incubator for 3 days.

[6] = tested on: C57BL/6J-Ay/+ mice (Ay/a mice); experiment: Coat colour darkening in Ay/a mice; assay type: in vivo, mouse; details: for Coat colour of all mice: 6 consecutive days
Experimental: (§1) Unless noted otherwise, 3‐week‐old male C57BL/6J‐A^y/+ mice (Ay/a mice) were purchased from Japan SLC, Inc. Mice were housed under specific pathogen‐free conditions, and all animal experiments were conducted according to the Guidelines for Animal Experimentation at our institute. On day 0, the coat of the lower back was shaved, and animals were allocated to experimental groups. […] Assessment of coat colour of the shaved area on day 6 was performed macroscopically in a blinded manner. The dorsal skins were dissected and fixed in a neutralised formalin then embedded in paraffin. Melanin production in the hair roots of the dorsal skin was histologically evaluated by Fontana‐Masson staining.

[7] = tested on: cynomolgus monkeys (Macaca fascicularis); experiment: Pigmentation on the facial skin of cynomolgus monkeys (colorimeter, ΔL*); assay type: in vivo, cynomolgus monkey
Experimental: This study was conducted in compliance with the ‘Act on Welfare and Management of Animals’ in Japan and the ‘Guidance for Animal Care and Use’ and in accordance with the protocol reviewed by the Institutional Animal Care and Use Committee of the test facility, which is fully accredited by AAALAC International. […] The measurement site (cheek) was the same site on the face for all animals. […] The ΔL* represents the differences of individual L* values between each time point and pre‐test.

Tyr, Trp1 and Dct genes = experiment: Expression of melanogenesis genes in pinnae of Ay/a mice (quantitative real-time PCR); assay type: in vivo, mouse
Experimental: as §1
Total RNA was extracted using the Qiagen RNeasy Mini Kit (Qiagen), and quantitative real‐time PCR for Tyr, Trp1 and Dct was performed using the One Step SYBR PrimeScript PLUS RT‐PCR Kit (Takara Bio). Hypoxanthine phosphoribosyltransferase 1 (Hprt) was used as an endogenous control for normalisation. The ΔCT method was used to determine the relative expression levels. All PCR primers were purchased from Takara Bio with following product codes, MA153806 (Tyr), MA129755 (Trp1), MA118342 (Dct) and MA031262 (Hprt).

[8] = Ay/a mouse, male, 0.03 mg/kg oral, day 1
[9] = Ay/a mouse, male, 0.3 mg/kg oral, day 1

T2 sequence (Q01718 whole entry): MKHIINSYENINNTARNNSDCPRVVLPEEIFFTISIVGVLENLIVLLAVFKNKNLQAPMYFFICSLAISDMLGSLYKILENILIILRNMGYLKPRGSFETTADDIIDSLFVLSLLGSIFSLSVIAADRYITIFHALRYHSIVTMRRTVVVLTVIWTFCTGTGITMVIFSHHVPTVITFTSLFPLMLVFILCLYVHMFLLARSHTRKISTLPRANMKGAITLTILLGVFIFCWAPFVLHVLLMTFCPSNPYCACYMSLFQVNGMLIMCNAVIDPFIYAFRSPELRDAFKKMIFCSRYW
T2 sequence (Q8TCY5 whole entry partner): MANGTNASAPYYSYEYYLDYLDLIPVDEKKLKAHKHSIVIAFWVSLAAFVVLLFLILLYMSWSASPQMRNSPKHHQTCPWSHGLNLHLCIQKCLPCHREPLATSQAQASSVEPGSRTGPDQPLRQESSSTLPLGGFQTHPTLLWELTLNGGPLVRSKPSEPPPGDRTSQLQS

In the case of `COC[C@H]1CN(C(=O)[C@]2(F)CN(C3CCCC3)C[C@H]2c2ccc(OC)cc2)C[C@@H]1c1ccc(C(F)(F)F)cc1N1CCC(C(=O)O)CC1` [MT‐7117, dersimelagon], the “Histopathological change for melanocytes in face” value (melanocytes in face) was “no histopathological change”, the pEC50 [1] was 8.41 and the C max ([2]; Ay/a mouse, male, 0.3 mg/kg oral, day 1, 0.3 mg/kg) was 5.62 ng/mL. For the same molecule, the Cmax ([2]; male, 0.03 mg/kg, Ay/a mouse, male, 0.03 mg/kg oral, day 1, read-out: C max) was 0.668 ng/mL, the Cmax ([2]; male, 0.3 mg/kg, Ay/a mouse, male, 0.3 mg/kg oral, day 1, read-out: C max) was 5.6 ng/mL and the Cmax ([2]; male, 0.3 mg/kg, mice, single oral dose 0.3 mg/kg, read-out: Cmax in molar units) was 8.3 nM. The “Increase of plasma levels with dose” value ([2]; mice, 0.03 and 0.3 mg/kg) was “dose‐proportional manner”, the Tmax [2, 8] was 0.5 h and the AUC(0-t) [2, 8] was 2.62 ng·h/mL. It also gave a Tmax [2, 9] of 2 h, an AUC(0-t) [2, 9] of 31.8 ng·h/mL and a Cmax ([3]; monkeys, repeated oral dosing 1 mg/kg, read-out: Cmax in molar units) of 78 nM. For the same molecule, the “Increase of plasma levels with dose” value ([3]; monkeys, 1, 3 and 10 mg/kg) was “greater than a dose‐proportional increase”, the Tmax ([3]; 1 mg/kg oral, day 28) was 2.6 h and the AUC(0-t) ([3]; 1 mg/kg oral, day 28) was 428 ng·h/mL. For the same molecule, the Cmax ([3]; 1 mg/kg oral, day 28, read-out: C max) was 53 ng/mL, the Tmax ([3]; 3 mg/kg oral, day 28) was 1 h and the AUC(0-t) ([3]; 3 mg/kg oral, day 28) was 2510 ng·h/mL. For the same molecule, the Cmax ([3]; 3 mg/kg oral, day 28, read-out: C max) was 401 ng/mL, the Tmax ([3]; 10 mg/kg oral, day 28) was 1.8 h and the AUC(0-t) ([3]; 10 mg/kg oral, day 28) was 14100 ng·h/mL. The Cmax ([3]; 10 mg/kg oral, day 28, read-out: C max) was 1510 ng/mL, the pEC50 (human MC2R (hMC2R)) was < 5.00 and the “Distribution into the brain” value [4] was “less likely to be distributed into the brain”. For the same molecule, the pEC50 (rat MC1R) was 9.60, the “Emax of cAMP production compared with αMSH” value (human MC1R (hMC1R)) was “same level as that of the endogenous agonist αMSH” and the pEC50 [5] was 10.89. The “Coat colour of all mice” value ([6]; 0.3 mg/kg orally) was “black”, the “Coat colour of all mice” value ([6]; 3 mg/kg orally) was “black” and the “Pigment in the hair root (Fontana-Masson staining of dorsal skin)” value ([6]; 3 mg/kg, day 6) was “black”. For the same molecule, the “Minimum effective dose for darkening of coat colour of mice” value ([6]; oral, Ay/a mice) was 0.3 mg/kg, the “Dose that significantly induced coat colour darkening in mice” value ([6]; p.o.) was ≥ 0.3 mg/kg/day and the “Time of dosing after which ΔL* decrease was statistically significant versus vehicle” value ([7]; 10 mg/kg/day oral) was 3 weeks. The “Time after cessation of treatment at which pigmentation diminished” value ([7]; 30 mg/kg group) was 16 weeks, the “Time of dosing after which ΔL* decrease was statistically significant versus vehicle” value ([7]; 30 mg/kg/day oral) was 1 week and the “Time after cessation of treatment at which pigmentation diminished” value ([7]; 1, 3 and 10 mg/kg groups) was 4 weeks. The “Time of dosing after which ΔL* decrease was statistically significant versus vehicle” value ([7]; 1 and 3 mg/kg/day oral) was 4 weeks, the “Minimum effective dose for skin pigmentation of monkeys” value ([7]; oral, once daily) was 1 mg/kg and the “Dose that induced significant skin pigmentation in monkeys” value ([7]; p.o.) was ≥ 1 mg/kg/day. For the same molecule, the “Expression of Tyr, Trp1 and Dct genes in pinnae” value (Tyr, Trp1 and Dct genes; 0.3 mg/kg single oral dose, 24 h) was “tendency towards gene upregulation” and the “Expression of Tyr, Trp1 and Dct genes in pinnae” value (Tyr, Trp1 and Dct genes; 3 mg/kg single oral dose, 24, 48 and 72 h, relative to Hprt) was “significantly upregulated”.
